ChEMBL document CHEMBL5365535, “Selenoneine-inspired selenohydantoins with glutathione peroxidase-like activity” (Bioorg Med Chem, 2023)
Calls of active or inactive are those of the source. The rule behind the calls is not given here.

Columns and labels:
[1] = Antioxidant activity assessed as DPPH radical scavenging activity incubated for 60 min by DPPH assay; type: functional
[2] = Antioxidant activity assessed as FRAP radical scavenging activity by measuring reduction of Fe3+ complex to Fe2+ analogue incubated for 5 mins by FRAP assay; type: functional; parameters: reference not given here
[3] = Antioxidant activity assessed as time to reach reaction completion; type: functional
[4] = Antioxidant activity assessed as anti-radical efficiency; type: functional
[5] = Antioxidant activity assessed as rate constant; type: functional
[6] = Glutathione peroxidase-like activity assessed as decrease in NADPH level at 20 uM in the presence of H2O2 and glutathione reductase by UV-VIS spectrophotometer analysis (reference value: 37 microM/min); type: physicochemical
[7] = Glutathione peroxidase-like activity assessed as decrease in NADPH level at 20 uM in the presence of cumene hydroperoxide and glutathione reductase by UV-VIS spectrophotometer analysis (reference value: 7 microM/min); type: physicochemical
[8] = Glutathione peroxidase-like activity assessed as time to reach completion of the linear part at 20 uM in presence of H2O2 by UV-VIS spectrophotometer analysis; type: physicochemical
[9] = Glutathione peroxidase-like activity assessed as time to reach completion of the linear part at 20 uM in presence of cumene hydroperoxide by UV-VIS spectrophotometer analysis; type: physicochemical
[10] = Cytotoxicity against HuAoSMC cells assessed as metabolic activity at below 100 uM incubated for 24 hrs by MTT assay; type: toxicity, cell-based; conditions: human, read-out: Activity
[11] = Cytotoxicity against HuAoSMC cells assessed as metabolic activity at 1 uM incubated for 24 hrs by MTT assay; type: toxicity, cell-based; conditions: human

SMILES	EC50 ([1]; read-out: EC50) [µM]	Activity [2]	TIME [3] [h]	Activity [4]	K [5] [s⁻¹]	Activity [6] [µM/min]	Activity [7] [µM/min]	Time [8] [s]	Time [9] [s]	viability at 24 h, 100 µM [10] [%]	EC50 [1]	Activity [11]
O=C1NC(=[Se])NC1Cc1ccccc1 (configuration not stated)	37	219 µM	0.7	0.63 10^-3/min/µM	0.46	55	18	113	413	> 70	–	–
O=C1NC(=[Se])NC1Cc1ccc(C(F)(F)F)cc1 (configuration not stated)	35	363 µM	0.233	2.1 10^-3/min/µM	1.6	63	32	100	180	> 70	–	–
COc1ccc(CC2NC(=[Se])NC2=O)cc1 (configuration not stated)	38	314 µM	0.3	1.4 10^-3/min/µM	1.2	49	13	140	467	> 70	–	–
O=c1c2ccccc2[se]n1-c1ccccc1 [EBSELEN]	–	inactive	–	–	–	75	33	80	187	–	Not Active	–
NCC[Se][Se]CCN	–	–	–	–	–	53	66	153	93	–	–	Toxic
N[C@@H](CCC(=O)N[C@@H](CS)C(=O)NCC(=O)O)C(=O)O [GLUTATHIONE]	50	94 µM	0.483	0.69 10^-3/min/µM	0.53	–	–	–	–	–	–	–
O=C1NC(=[Se])NC1Cc1cccc2ccccc12 (configuration not stated)	44	271 µM	0.367	1 10^-3/min/µM	0.84	39	18	187	360	> 70	–	–
O=C1NC(=[Se])NC1Cc1ccc(F)cc1 (configuration not stated)	39	439 µM	0.4	1.05 10^-3/min/µM	0.89	57	13	107	460	> 70	–	–
O=C1O[C@H]([C@@H](O)CO)C(O)=C1O [ASCORBIC ACID]	17.8	1630 µM	–	–	–	–	–	–	–	–	–	–
O=C1NC(=[Se])NC1Cc1ccc(Br)cc1 (configuration not stated)	60	180 µM	–	–	–	51	17	127	393	> 70	–	–
O=C1NC(=[Se])NC1Cc1ccc(Cl)cc1 (configuration not stated)	44	421 µM	0.183	2.1 10^-3/min/µM	2.28	54	27	113	253	> 70	–	–
Cc1ccc(CC2NC(=[Se])NC2=O)cc1 (configuration not stated)	89	116 µM	–	–	–	55	18	107	367	> 70	–	–
